Measured values from US8138167B2, “Methods for treating lung cancers” (Oncotherapy Science, Inc., priority 2006, dated 2012).
Where two headings read alike, the source gives them in different places.

Legend:
[1] = tested on: advanced non-small-cell lung cancer; details: Japanese patients with advanced NSCLC treated since approval; cited from earlier work
lung cancer = details: cited from earlier work
PC-9 cells = details: gefitinib-sensitive, amphiregulin-nonexpressing NSCLC line PC-9; upon autocrine secretion of amphiregulin; cited from earlier work
[2] = tested on: progressive non-small-cell lung cancer; assay: gefitinib therapy (250 mg/day) of 50 patients with progressive non-small-cell lung cancer, overall evaluation of tumor response
[3] = 50 progressive NSCLC patients, gefitinib 250 mg/day, evaluation after four months
[4] = of 50 patients after gefitinib therapy

COc1cc2ncnc(Nc3ccc(F)c(Cl)c3)c2cc1OCCCN1CCOCC1 [gefitinib, N-(3-chloro-4-fluorophenyl)-7-methoxy-6-(3-morpholinopropoxy)quinazolin-4-amine]
patients showing no improvement in symptoms [1]: 60% | median survival time (lung cancer; adenocarcinoma patients, gefitinib arm (placebo […])): 6.3 months | median survival time (lung cancer; all parent populations, gefitinib arm (placebo 5.1)): 5.6 months | antitumor activity of gefitinib on PC-9 cells (PC-9 cells): dramatically reduced | disease control rate (CR+PR+SD/CR+PR+SD+PD) [2, 3]: 40.0% | tumor response rate (CR+PR/CR+PR+SD+PD) [2, 3]: 16.0% | patients classified as CR [2, 4]: none | patients classified as PD [2, 4]: 30 patients | patients classified as PR [2, 4]: eight | patients classified as SD [2, 4]: 12 patients
